According to patent US20220144938A1, “IDENTIFICATION AND TARGETING OF TUMOR PROMOTING CARCINOMA ASSOCIATED FIBROBLASTS FOR DIAGNOSIS AND TREATMENT OF CANCER AND OTHER DISEASES” (Board of Regents, The University of Texas System, priority 2018, published 2022):
Entries after “also recorded” stand apart in the source; their conditions may differ.

Columns and labels:
[1] = tested on: phospho-Stat3, phospho-ERK1/2, phospho-Akt; experiment: Immunohistochemistry for phospho-Stat3, phospho-ERK1/2 and phospho-Akt in tumors; assay type: in vivo, mice
Protocol: (§1) Formalin-fixed, paraffin-embedded (FFPE) sections were processed for immunohistochemical (IHC) staining as previously described (Zheng et al., 2015), after Citrate based antigen retrieval (pH=6). For FAP staining in mouse FFPE sections citrate-based antigen retrieval was performed at pH 7.4. Staining for αSMA was performed with M.O.M. kit (Vector Laboratories) following the manufacturer's instructions. For all other staining, sections were incubated with biotinylated goat anti-rabbit and streptavidin HRP (Biocare Medical), each for 10 min. For all staining, counterstaining with hematoxylin was performed and DAB positivity was examined in ten visual fields at 200× magnification. […] The images were quantified for positive area using NIH ImageJ analysis software (αSMA, CD31, CK19, cleaved caspase-3, Ki67, MTS, phospho-Akt, phospho-ERK1/2, phospho-Stat3). For αSMA and FAP double immunofluorescence in human FFPE sections, secondary anti-sheep Alexa Fluor 488 and anti-mouse Alexa Fluor 534 antibodies were incubated for 30 min at RT. For αSMA and FAP IHC on FAP-TK and control tumor sections, immunoreactive score (IRS) were obtained from the sum of distribution and intensity scores for each section, established on a scale of 1 to 4 (Meyerholz & Beck, 2018).

PDAC tumors (KPPF GEM) [2] = experiment: Immunohistochemistry/staining of pancreas sections for CD31, Ki67, cleaved caspase 3 and MTS; assay type: in vivo, mice
Protocol: as §1
Histopathological Scoring. Mouse tissues were fixed in 10% neutral buffered formalin, embedded in paraffin, and sectioned at 5 μm thickness. Sections were processed for haematoxylin and eosin (H&E) staining and/or Masson's trichrome staining (MTS) using Gomori's Trichome Stain Kit (38016SS2, Leica Biosystems). Histopathological assessments were conducted in a blinded fashion by scoring H&E-stained sections for relative percentages of the listed histopathological phenotypes. Tumor scores for orthotopic tumors were attributed on a scale from 1 (minor involvement) to 4 (extensive involvement), which evaluated on H&E sections of the entire pancreas the relative tumor involvement. Microscopic metastases were examined in H&E-stained tissue sections of the liver and lung. Positivity (one or more lesions in one tissue) was confirmed by CK19 staining. Images were obtained with a Leica DM 1000 LED microscope and an MC120 HD Microscope Camera with Las V4.4 Software (Leica).

PDAC tumors (KPPF GEM) [3] = experiment: Histopathological scoring and tumor burden of pancreas tumors; assay type: in vivo; details: gemcitabine in KPPF;IL-6smaKO vs KPPF mice
Description: Mice. FSF-Kras^G12D/+ (Schonhuber et al., 2014), Pdx1-Flp (Schonhuber et al., 2014), Trp53^frt/+ (Lee et al., 2012), LSL-Kras^G12D/+ (Hingorani et al., 2005), Pdx1-Cre (Hingorani et al., 2005), αSMA-Cre (LeBleu et al., 2013), αSMA-RFP (LeBleu et al., 2013), Rosa26-loxP-Stop-loxP-YFP (Ozdemir et al., 2014), Tgfbr2^loxP/loxP (Ijichi et al., 2006), and IL-6^loxP/loxP (Quintana et al., 2013) mouse strains were previously documented. The Rosa26-CAG-loxP-frt-Stop-frt-FireflyLuc-EGFP-loxP-RenillaLuc-tdTomato (referred to as R26^Dual), FSF-Kras^G12D/+, Pdx1-Flp, and Trp53^frt/+ strains were kindly provided by D. Saur, and the R26R-Brainbow2.1/Confetti (referred to as R26^Confetti) strain was purchased from Jackson Laboratory (Stock 013731). The IL-6^−/− strain was generated by crossing the IL-6^loxP/loxP strain with CMV-Cre strain (Jackson Laboratory; Stock 006054). […] Mice were maintained on a mixed genetic background and both male and female mice were evaluated. […] Some of the tissues analyzed from the PKT;αSMA-TK GEM were from mice that were previously published (Ozdemir et al., 2014). […]
Histopathological Scoring. […] Tumor scores for orthotopic tumors were attributed on a scale from 1 (minor involvement) to 4 (extensive involvement), which evaluated on H&E sections of the entire pancreas the relative tumor involvement. […]

intra-tumoral T cells = experiment: Flow cytometry characterization of tumor immune infiltration; assay type: in vivo; details: gemcitabine treatment, mice with IL-6
Protocol: For the characterization of immune infiltration, tumors (from 2.5-month-old mice, treated with saline or gemcitabine for 2 weeks) were weighed, minced with gentleMACS Dissociator, and digested in 2 mL solution containing 1 mg/mL Liberase TL (Roche) and 0.2 mg/mL DNase I in DMEM media at 37° C. for 30 min. Spleens were weighed and filtered through a 100 μm mesh. Peripheral blood was collected with EDTA-tube, incubated with ACK lysis buffer for 5 min, and proceeded to mesh filtration. The tissue lysates were filtered through a 100 μm mesh before immunostaining. The subsequent single-cells suspension was stained with Fixable Viability Dye eFluor 780 (eBioscience) and antibodies specified in Table 2. The percentage positive cells were analyzed by FlowJo 10.1 and gated on CD45 positivity. Unstained, viability stain only, and single-stained beads (eBioscience) were used as compensation controls. Singlets were gated using forward scatter (FSC) height (FSC-H) and FSC area (FSC-A) event characteristics.

[4] = tested on: IL-6 and Acta2 (αSMA) transcripts; experiment: qPCR and immunolabeling of IL-6 and αSMA in tumors; assay type: in vivo; details: tumors of KPPF mice following gemcitabine treatment
Protocol: as §1, with “For αSMA and FAP IHC on FAP-TK and control tumor sections, immunoreactive score (IRS) were obtained from the sum of distribution and intensity scores for each section, established on a scale of 1 to 4 (Meyerholz & Beck, 2018).” left out
Gene expression analyses and global gene expression profiling. […] The expression level of detected genes was normalized to that of Gapdh housekeeping gene. […] Primer sequences for detected genes are listed below. […]

[5] = tested on: PDAC tumors lacking p53 (KPPF); experiment: Survival of PDAC genetically engineered mice under treatment (Kaplan-Meier, log rank); assay type: in vivo
Description: Mice. FSF-Kras^G12D/+ (Schonhuber et al., 2014), Pdx1-Flp (Schonhuber et al., 2014), Trp53^frt/+ (Lee et al., 2012), LSL-Kras^G12D/+ (Hingorani et al., 2005), Pdx1-Cre (Hingorani et al., 2005), αSMA-Cre (LeBleu et al., 2013), αSMA-RFP (LeBleu et al., 2013), Rosa26-loxP-Stop-loxP-YFP (Ozdemir et al., 2014), Tgfbr2^loxP/loxP (Ijichi et al., 2006), and IL-6^loxP/loxP (Quintana et al., 2013) mouse strains were previously documented. The Rosa26-CAG-loxP-frt-Stop-frt-FireflyLuc-EGFP-loxP-RenillaLuc-tdTomato (referred to as R26^Dual), FSF-Kras^G12D/+, Pdx1-Flp, and Trp53^frt/+ strains were kindly provided by D. Saur, and the R26R-Brainbow2.1/Confetti (referred to as R26^Confetti) strain was purchased from Jackson Laboratory (Stock 013731). The IL-6^−/− strain was generated by crossing the IL-6^loxP/loxP strain with CMV-Cre strain (Jackson Laboratory; Stock 006054). The FAP-TK transgenic strain was newly generated: a 5 kb sequence flanking the FAP promoter and partial Exon 1 (Ex1) was cloned into pORF-HSV1-TK vector (Invivogen) using NotI and AgeI. The sequence-confirmed FAP-TK construct was released from the vector using NotI and SwaI before purification and injection into fertilized eggs. The transgenic mice were generated on the C57Bl/6 genetic background. These mice were bred onto PDAC GEM or implanted orthotopically with 689KPC cancer cells, as previously described (Kamerkar et al., 2017). Mice were maintained on a mixed genetic background and both male and female mice were evaluated. Mice were given gemcitabine (G-4177, LC Laboratories) intraperitoneally (i.p.) twice per week at 40 mg/kg of body weight. Gemcitabine treatment was initiated at 35 days of age. Ganciclovir (GCV; sud-gcv, Invivogen) was administered i.p. daily at 50 mg/kg of body weight ([…]). GCV was administered to PKT mice at 28 to 30 days of age, and to PKP mice at 50-51 days of age. Some of the tissues analyzed from the PKT;αSMA-TK GEM were from mice that were previously published (Ozdemir et al., 2014). […]

[6] = gemcitabine with loss of IL-6 from αSMA+ CAFs (KPPF;IL-6smaKO)
[7] = tumors of KPPF mice treated with gemcitabine
[8] = gemcitabine in mice with αSMA+ CAFs-specific loss of IL-6, vs controls

Nc1ccn([C@@H]2O[C@H](CO)[C@@H](O)C2(F)F)c(=O)n1 [gemcitabine]
gemcitabine-induced change in phosphorylated Akt [1, 6]: significantly attenuated | gemcitabine-induced change in phosphorylated ERK1/2 [1, 6]: significantly attenuated | gemcitabine-induced change in phosphorylated Stat3 [1, 6]: significantly attenuated | levels of phosphorylated Akt in cancer cells [1, 7]: elevated levels | levels of phosphorylated ERK1/2 in cancer cells [1, 7]: elevated levels | levels of phosphorylated Stat3 in cancer cells [1, 7]: elevated levels | cleaved caspase-3, indicative of apoptosis (PDAC tumors (KPPF GEM) [2]; gemcitabine concurrent with αSMA+ CAFs-specific loss of IL-6): further increased | cancer cell proliferation (PDAC tumors (KPPF GEM) [2]; [8]): did not significantly impact | tumor collagen deposition (PDAC tumors (KPPF GEM) [2]; [8]): did not significantly impact | tumor vasculature (PDAC tumors (KPPF GEM) [2]; [8]): did not significantly impact | cleaved caspase-3, indicative of apoptosis (PDAC tumors (KPPF GEM) [2]; mice treated with gemcitabine): elevated | tumor burden (PDAC tumors (KPPF GEM) [3]): reduced tumor burden | histopathology (PDAC tumors (KPPF GEM) [3]; moribund endpoint): improved histopathology | intra-tumoral T cell frequencies (intra-tumoral T cells): minimally impacted | IL-6 transcript levels and positive cells [4]: elevated | αSMA transcript levels and αSMA+ CAFs [4]: elevated | overall survival ([5]; KPPF mice, gemcitabine 40 mg/kg i.p. twice per week, vs untreated KPPF mice): no benefit | overall survival ([5]; KPPF;IL-6smaKO mice (αSMA+ CAFs-specific loss of IL-6) treated with gemcitabine, vs KPPF mice treated with gemcitabine): increase in overall survival; also recorded: overall increase in survival | overall survival ([5]; KPPF;IL-6−/− mice (absent IL-6) treated with gemcitabine, vs KPPF mice treated with gemcitabine): increased overall survival; also recorded: overall increase in survival
